# Assay results reported in ChEMBL document CHEMBL5442175, “EUbOPEN Chemogenomics Library - PDSP Secondary Binding” (2024).
# Structures can show the parent of a compound that is named as a salt.
# Columns and labels:
# [1] = target: T1, Muscarinic acetylcholine receptor M5 (Homo sapiens, UniProt P08912); assay: (§1) PDSP Secondary Binding target: CHRM5 - Compounds are tested at 10 uM concentration, plate are incubated at room temperature in the dark for 90 minutes. Reaction are stopped by vacuum filtration onto 0.3% polyethyleneimine soaked filter mats using Filtermate harvester. Scintillation cocktail is then melted onto microwave-dried filters on a hot plate and the radio activity is counted in Microbia counter.
# T1 sequence (P08912 whole entry): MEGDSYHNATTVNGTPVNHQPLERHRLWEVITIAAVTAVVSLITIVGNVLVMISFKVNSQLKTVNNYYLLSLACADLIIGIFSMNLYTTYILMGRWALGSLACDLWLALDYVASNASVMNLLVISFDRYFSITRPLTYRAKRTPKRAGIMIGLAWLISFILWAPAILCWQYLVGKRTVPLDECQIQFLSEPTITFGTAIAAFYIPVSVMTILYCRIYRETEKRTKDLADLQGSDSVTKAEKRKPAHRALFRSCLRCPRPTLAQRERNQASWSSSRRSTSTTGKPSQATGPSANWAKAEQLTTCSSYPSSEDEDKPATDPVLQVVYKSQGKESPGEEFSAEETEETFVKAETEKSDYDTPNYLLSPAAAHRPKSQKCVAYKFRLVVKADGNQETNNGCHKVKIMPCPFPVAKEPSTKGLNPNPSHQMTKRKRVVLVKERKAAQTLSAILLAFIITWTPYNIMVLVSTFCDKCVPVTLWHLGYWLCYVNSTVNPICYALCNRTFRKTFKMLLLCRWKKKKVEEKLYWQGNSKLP
# [2] = target: T2, 5-hydroxytryptamine receptor 1A (Homo sapiens, UniProt P08908); assay: as §1, with “HTR1A” for “CHRM5”
# T2 sequence (P08908 whole entry): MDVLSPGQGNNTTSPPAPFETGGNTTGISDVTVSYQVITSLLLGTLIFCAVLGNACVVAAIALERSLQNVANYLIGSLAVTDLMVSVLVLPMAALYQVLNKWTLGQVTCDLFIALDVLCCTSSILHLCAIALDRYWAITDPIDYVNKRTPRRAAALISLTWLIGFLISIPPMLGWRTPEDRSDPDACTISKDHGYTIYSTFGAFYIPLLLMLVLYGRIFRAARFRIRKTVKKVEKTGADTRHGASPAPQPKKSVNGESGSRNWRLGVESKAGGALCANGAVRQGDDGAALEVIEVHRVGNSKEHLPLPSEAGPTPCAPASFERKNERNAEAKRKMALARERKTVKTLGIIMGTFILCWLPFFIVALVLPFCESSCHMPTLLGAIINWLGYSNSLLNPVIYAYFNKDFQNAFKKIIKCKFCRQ
# Translocator protein = Translocator protein (Homo sapiens, UniProt P30536); assay: as §1, with “TSPO” for “CHRM5”
# Sequence of Translocator protein (P30536 whole entry): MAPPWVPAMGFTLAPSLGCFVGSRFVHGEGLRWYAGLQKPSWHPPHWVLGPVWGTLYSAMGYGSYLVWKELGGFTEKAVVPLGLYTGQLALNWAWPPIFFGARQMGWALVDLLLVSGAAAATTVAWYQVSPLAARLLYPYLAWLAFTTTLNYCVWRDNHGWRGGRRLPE
# [3] = target: Sigma intracellular receptor 2 (Homo sapiens, UniProt Q5BJF2); assay: as §1, with “TMEM97” for “CHRM5”
# Sequence of Sigma intracellular receptor 2 (Q5BJF2 whole entry): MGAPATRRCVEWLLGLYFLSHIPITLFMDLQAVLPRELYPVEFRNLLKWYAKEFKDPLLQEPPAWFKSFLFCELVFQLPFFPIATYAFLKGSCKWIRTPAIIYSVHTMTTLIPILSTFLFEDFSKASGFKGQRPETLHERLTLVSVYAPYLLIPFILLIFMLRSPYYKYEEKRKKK
# [4] = target: 5-hydroxytryptamine receptor 5A (Homo sapiens, UniProt P47898); assay: as §1, with “HTR5A” for “CHRM5”
# Sequence of 5-hydroxytryptamine receptor 5A (P47898 whole entry): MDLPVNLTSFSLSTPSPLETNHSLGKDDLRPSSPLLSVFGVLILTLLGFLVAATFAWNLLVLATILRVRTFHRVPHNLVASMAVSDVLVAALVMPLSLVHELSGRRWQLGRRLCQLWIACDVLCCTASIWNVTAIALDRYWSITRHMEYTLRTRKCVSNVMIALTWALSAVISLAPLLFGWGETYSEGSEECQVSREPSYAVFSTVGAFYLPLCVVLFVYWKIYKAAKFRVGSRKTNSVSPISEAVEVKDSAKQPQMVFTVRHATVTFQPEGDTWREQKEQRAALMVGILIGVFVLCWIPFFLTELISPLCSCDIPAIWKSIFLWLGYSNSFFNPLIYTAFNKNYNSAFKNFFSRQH
# [5] = target: Sodium-dependent noradrenaline transporter (Homo sapiens, UniProt P23975); assay: as §1, with “SLC6A2” for “CHRM5”
# Sequence of Sodium-dependent noradrenaline transporter (P23975 whole entry): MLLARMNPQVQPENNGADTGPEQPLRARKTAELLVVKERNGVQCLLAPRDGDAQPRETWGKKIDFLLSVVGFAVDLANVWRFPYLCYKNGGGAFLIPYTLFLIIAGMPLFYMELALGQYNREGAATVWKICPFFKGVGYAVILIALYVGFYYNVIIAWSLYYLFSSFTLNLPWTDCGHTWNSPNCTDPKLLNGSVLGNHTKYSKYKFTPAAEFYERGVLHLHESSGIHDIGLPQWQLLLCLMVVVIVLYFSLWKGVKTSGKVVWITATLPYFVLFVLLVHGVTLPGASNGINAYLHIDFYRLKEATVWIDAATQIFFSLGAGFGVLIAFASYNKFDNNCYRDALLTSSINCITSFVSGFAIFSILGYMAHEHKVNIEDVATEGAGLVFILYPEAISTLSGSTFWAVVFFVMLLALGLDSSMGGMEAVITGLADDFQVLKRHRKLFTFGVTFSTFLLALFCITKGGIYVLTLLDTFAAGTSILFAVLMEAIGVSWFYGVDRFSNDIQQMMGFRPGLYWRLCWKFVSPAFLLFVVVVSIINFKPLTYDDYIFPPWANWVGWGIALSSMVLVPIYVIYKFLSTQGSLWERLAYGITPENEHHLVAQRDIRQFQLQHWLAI
# [6] = target: Sodium-dependent dopamine transporter (Homo sapiens, UniProt Q01959); assay: as §1, with “SLC6A3” for “CHRM5”
# Sequence of Sodium-dependent dopamine transporter (Q01959 whole entry): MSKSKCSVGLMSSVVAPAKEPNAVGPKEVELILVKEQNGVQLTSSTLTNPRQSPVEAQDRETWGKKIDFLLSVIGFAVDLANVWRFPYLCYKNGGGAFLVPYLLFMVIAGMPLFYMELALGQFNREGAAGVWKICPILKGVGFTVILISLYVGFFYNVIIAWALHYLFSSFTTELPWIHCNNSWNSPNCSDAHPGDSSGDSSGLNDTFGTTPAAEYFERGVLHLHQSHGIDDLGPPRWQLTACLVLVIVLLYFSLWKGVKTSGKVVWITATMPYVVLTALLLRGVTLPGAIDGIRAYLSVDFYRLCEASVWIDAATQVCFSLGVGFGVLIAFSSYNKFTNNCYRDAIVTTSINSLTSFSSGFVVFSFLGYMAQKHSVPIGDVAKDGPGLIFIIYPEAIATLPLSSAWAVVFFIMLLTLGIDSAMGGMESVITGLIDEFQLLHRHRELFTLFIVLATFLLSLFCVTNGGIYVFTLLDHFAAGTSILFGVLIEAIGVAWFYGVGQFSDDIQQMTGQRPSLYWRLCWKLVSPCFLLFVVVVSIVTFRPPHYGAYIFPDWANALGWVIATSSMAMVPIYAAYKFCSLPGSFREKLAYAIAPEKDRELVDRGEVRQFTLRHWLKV
# [7] = target: 5-hydroxytryptamine receptor 7 (Homo sapiens, UniProt P34969); assay: as §1, with “HTR7” for “CHRM5”
# Sequence of 5-hydroxytryptamine receptor 7 (P34969 whole entry): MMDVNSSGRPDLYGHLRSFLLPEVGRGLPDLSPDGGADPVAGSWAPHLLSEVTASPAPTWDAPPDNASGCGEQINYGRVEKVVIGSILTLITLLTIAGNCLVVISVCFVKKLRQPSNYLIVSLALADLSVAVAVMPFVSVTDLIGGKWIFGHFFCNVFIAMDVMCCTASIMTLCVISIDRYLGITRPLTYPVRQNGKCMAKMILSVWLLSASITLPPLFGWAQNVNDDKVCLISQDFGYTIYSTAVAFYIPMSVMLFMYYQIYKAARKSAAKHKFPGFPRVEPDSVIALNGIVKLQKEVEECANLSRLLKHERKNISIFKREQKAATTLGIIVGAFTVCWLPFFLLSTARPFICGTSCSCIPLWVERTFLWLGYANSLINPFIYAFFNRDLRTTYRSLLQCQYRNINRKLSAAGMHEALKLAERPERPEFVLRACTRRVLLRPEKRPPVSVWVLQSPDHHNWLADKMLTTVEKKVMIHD
# D(1B) dopamine receptor = D(1B) dopamine receptor (Homo sapiens, UniProt P21918); assay: as §1, with “DRD5” for “CHRM5”
# Sequence of D(1B) dopamine receptor (P21918 whole entry): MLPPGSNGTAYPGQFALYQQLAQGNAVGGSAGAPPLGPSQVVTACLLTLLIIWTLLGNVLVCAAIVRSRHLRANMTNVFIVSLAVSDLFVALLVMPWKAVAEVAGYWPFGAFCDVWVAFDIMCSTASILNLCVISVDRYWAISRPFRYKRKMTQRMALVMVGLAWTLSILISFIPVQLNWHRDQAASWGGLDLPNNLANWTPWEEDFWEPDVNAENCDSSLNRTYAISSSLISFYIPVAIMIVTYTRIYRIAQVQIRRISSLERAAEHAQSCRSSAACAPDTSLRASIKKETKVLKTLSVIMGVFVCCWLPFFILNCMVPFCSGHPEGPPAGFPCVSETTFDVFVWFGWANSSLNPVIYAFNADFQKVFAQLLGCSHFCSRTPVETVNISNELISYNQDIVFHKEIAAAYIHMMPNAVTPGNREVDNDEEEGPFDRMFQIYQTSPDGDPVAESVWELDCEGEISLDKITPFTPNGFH
# [8] = target: 5-hydroxytryptamine receptor 1B (Homo sapiens, UniProt P28222); assay: as §1, with “HTR1B” for “CHRM5”
# Sequence of 5-hydroxytryptamine receptor 1B (P28222 whole entry): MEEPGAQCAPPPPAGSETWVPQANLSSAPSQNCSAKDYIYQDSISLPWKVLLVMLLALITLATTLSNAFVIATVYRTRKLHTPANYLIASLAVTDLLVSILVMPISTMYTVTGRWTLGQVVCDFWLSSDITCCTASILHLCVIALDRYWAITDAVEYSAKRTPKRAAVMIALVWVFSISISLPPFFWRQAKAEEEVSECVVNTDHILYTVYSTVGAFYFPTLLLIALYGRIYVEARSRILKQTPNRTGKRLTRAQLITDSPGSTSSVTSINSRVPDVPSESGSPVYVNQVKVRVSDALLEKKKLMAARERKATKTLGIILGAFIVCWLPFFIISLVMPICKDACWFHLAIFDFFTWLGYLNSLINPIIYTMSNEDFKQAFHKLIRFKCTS
# [9] = target: 5-hydroxytryptamine receptor 1D (Homo sapiens, UniProt P28221); assay: as §1, with “HTR1D” for “CHRM5”
# Sequence of 5-hydroxytryptamine receptor 1D (P28221 whole entry): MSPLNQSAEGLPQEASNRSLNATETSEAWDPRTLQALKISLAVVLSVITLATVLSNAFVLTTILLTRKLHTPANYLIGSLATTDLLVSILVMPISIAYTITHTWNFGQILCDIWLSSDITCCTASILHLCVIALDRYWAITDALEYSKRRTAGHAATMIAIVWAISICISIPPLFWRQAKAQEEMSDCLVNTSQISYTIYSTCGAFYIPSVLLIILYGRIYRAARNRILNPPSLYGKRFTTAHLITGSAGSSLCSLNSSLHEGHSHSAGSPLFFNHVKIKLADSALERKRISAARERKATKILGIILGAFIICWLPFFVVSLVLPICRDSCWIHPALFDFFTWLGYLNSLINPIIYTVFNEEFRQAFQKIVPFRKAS
# [10] = target: T3, Alpha-2B adrenergic receptor (Homo sapiens, UniProt P18089); assay: as §1, with “ADRA2B” for “CHRM5”
# T3 sequence (P18089 whole entry): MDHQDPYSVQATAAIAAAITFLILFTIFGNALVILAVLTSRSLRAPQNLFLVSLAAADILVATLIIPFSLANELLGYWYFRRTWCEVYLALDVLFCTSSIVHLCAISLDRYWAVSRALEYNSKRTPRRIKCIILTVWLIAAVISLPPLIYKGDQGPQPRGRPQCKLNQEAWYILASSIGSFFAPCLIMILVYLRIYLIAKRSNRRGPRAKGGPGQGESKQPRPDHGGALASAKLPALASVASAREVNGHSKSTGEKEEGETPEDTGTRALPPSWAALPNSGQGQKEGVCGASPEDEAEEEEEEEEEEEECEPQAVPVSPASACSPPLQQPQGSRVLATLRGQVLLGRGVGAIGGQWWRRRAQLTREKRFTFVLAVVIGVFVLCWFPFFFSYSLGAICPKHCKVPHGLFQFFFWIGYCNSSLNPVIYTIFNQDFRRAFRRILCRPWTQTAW
# [11] = target: T4, Alpha-1A adrenergic receptor (Homo sapiens, UniProt P35348); assay: as §1, with “ADRA1A” for “CHRM5”
# T4 sequence (P35348 whole entry): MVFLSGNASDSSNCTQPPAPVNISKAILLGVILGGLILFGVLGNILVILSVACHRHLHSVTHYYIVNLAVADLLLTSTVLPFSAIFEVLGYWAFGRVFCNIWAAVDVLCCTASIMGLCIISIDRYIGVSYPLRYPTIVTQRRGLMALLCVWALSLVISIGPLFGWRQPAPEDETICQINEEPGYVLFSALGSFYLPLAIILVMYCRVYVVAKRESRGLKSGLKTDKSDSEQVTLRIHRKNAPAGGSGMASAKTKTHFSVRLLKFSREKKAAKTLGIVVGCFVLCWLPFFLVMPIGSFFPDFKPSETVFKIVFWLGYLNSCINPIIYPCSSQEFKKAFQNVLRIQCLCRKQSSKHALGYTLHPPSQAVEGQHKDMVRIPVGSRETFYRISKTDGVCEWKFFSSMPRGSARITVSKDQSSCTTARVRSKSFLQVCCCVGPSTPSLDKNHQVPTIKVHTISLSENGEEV
# [12] = target: T5, Alpha-1B adrenergic receptor (Homo sapiens, UniProt P35368); assay: as §1, with “ADRA1B” for “CHRM5”
# T5 sequence (P35368 whole entry): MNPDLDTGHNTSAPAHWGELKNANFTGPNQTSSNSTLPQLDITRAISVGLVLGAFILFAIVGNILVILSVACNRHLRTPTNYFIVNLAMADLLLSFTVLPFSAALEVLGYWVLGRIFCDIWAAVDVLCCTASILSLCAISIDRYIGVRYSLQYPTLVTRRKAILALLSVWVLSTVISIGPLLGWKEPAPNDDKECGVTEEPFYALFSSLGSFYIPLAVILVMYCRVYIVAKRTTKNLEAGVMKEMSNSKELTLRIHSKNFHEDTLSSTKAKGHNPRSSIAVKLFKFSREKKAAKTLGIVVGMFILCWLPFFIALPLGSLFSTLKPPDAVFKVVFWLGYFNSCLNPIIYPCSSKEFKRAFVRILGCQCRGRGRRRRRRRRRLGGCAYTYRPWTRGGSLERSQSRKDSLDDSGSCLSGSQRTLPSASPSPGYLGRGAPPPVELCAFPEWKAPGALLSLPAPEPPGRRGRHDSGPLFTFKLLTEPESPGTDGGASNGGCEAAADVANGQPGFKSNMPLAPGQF
# [13] = target: T6, Alpha-2C adrenergic receptor (Homo sapiens, UniProt P18825); assay: as §1, with “ADRA2C” for “CHRM5”
# T6 sequence (P18825 whole entry): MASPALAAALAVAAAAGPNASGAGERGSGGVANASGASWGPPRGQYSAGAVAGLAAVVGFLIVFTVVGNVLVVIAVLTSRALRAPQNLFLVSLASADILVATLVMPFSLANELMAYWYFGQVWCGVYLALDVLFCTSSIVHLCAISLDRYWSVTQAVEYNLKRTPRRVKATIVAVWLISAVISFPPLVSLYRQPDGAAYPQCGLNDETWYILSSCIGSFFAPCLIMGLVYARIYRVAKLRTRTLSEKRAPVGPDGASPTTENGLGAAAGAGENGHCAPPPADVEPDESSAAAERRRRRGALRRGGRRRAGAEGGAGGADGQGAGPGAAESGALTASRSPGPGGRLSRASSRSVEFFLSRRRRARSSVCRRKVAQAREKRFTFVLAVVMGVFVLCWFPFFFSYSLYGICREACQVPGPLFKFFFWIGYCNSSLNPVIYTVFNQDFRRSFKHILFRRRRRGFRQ
# [14] = target: Sodium-dependent serotonin transporter (Homo sapiens, UniProt P31645); assay: as §1, with “SLC6A4” for “CHRM5”
# Sequence of Sodium-dependent serotonin transporter (P31645 whole entry): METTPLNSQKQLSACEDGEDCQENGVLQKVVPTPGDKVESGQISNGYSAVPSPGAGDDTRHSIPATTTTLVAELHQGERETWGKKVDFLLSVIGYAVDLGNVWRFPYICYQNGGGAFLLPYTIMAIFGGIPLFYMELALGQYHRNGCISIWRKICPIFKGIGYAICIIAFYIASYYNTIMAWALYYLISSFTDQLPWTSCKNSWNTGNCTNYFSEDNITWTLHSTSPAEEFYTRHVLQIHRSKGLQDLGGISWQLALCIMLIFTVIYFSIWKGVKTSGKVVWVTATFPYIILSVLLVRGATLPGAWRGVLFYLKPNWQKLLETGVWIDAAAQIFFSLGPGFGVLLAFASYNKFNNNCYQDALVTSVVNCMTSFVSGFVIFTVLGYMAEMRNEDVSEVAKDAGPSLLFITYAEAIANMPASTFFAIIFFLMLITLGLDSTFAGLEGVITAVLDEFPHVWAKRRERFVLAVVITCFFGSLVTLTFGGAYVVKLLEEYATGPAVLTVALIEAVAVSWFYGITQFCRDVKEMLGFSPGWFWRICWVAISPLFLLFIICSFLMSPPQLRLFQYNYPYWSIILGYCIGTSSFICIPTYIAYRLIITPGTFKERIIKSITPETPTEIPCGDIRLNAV
# [15] = target: T7, Alpha-1D adrenergic receptor (Homo sapiens, UniProt P25100); assay: as §1, with “ADRA1D” for “CHRM5”
# T7 sequence (P25100 whole entry): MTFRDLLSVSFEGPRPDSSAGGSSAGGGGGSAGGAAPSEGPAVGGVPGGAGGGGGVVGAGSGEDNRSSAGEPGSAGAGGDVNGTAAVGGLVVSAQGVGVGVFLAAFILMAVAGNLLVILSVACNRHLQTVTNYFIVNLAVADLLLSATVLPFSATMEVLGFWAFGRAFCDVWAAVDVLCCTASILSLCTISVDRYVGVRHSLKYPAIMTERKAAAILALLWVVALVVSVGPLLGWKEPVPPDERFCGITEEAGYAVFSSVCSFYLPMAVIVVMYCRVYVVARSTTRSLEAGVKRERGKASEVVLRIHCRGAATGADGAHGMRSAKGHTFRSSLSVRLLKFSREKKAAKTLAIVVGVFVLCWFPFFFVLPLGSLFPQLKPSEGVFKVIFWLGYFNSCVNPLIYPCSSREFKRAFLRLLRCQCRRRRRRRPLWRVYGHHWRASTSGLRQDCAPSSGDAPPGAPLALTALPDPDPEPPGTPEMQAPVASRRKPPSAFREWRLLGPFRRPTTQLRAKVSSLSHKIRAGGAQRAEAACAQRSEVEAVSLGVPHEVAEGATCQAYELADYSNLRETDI
# [16] = target: Beta-3 adrenergic receptor (Homo sapiens, UniProt P13945); assay: as §1, with “ADRB3” for “CHRM5”
# Sequence of Beta-3 adrenergic receptor (P13945 whole entry): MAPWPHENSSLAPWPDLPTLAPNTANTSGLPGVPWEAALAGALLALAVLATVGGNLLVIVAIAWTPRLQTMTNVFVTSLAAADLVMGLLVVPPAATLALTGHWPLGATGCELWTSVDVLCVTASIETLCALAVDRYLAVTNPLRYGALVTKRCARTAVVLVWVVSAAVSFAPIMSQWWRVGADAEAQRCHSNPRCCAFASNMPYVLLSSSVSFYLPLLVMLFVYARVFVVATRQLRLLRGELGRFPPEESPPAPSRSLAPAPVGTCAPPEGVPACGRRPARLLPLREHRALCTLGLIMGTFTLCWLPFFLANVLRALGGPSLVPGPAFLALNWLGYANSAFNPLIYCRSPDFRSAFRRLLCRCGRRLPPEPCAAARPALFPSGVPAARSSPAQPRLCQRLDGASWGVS
compound,measurement,setting,value
COc1ccnc(N2CCC3(CCCN(Cc4c[nH]c5ccccc45)C3=O)CC2)n1,Ki,[1],> 10 µM
same,Ki,[2],3.26 µM
same,Ki,Translocator protein,0.803 µM
O=C(O)c1cc(-c2ccc(C3CCNCC3)cc2)c2ccc(-c3ccc(C(F)(F)F)cc3)cc2c1,Ki,[1],2.19 µM
same,Ki,[2],2.54 µM
same,Ki,[3],1.06 µM
same,Ki,[4],2.4 µM
same,Ki,[5],1.85 µM
same,Ki,[6],1.22 µM
same,Ki,[7],3.3 µM
same,Ki,D(1B) dopamine receptor,1.05 µM
same,Ki,[8],1.16 µM
same,Ki,[9],1.19 µM
Cc1cccc([C@H](C)c2cnc[nH]2)c1C [DEXMEDETOMIDINE HYDROCHLORIDE],Ki,[10],0.0121 µM
same,Ki,[5],3.26 µM
same,Ki,[11],0.749 µM
same,Ki,[7],0.923 µM
same,Ki,[12],2.98 µM
same,Ki,[13],0.0394 µM
Cc1c(OCc2cccc(-c3ccc(C(=O)O)cc3)c2)cc2c(c1C)C(=O)C(C1CCCC1)C2 (stereo not drawn),Ki,[14],> 10 µM
same,Ki,[15],> 10 µM
same,Ki,[12],> 10 µM
same,Ki,[16],5.05 µM
